From patent US20240376056A1, “PHENYL ACETAMIDE BASED IL-17A MODULATORS AND USES THEREOF” (DiCE Alpha, Inc., priority 2021, published 2024)

Biological target: T1, IL-17A/A (Homo sapiens, UniProt Q16552)
T1 construct: purchased Genscript Z03228
T1 sequence (Q16552 24-155): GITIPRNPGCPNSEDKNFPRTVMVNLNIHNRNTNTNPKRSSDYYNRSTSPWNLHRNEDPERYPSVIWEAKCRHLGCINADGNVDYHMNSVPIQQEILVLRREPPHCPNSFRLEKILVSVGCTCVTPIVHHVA
Test: HEK-Blue IL-17A/A inhibition assay (SEAP reporter)
Assay type: cell-based
Conditions: HEK-Blue cells (HEK 293 expressing IL-17RA, IL-17RC, Act1); IL-17A/A stimulation; 20 hours; SEAP read at A630; 4-parameter fit
Description: The HEK-Blue #NC108637 […]. Cells were grown and prepared for assays according to the manufacturer's instructions. This cell line consists of HEK 293 cells that were designed to expressed IL-17R^A, IL-17RC, and the ActI adapter molecule, the combination of which. when stimulated by IL-17A/A activates a NFtcB promoter and drives expression of a recombinant Secreted Alkaline Phosphatase (SEAP) geneprotein. Media from the cells is then added to a development reagent (Quanti-Blue Substrate, Fisher #NC971 1613), and read at A630.
Compounds were titrated in DMSO. with a top final compound concentration of 10 uM, 1 uM, or 0.3 uM, and added to the cells immediately before adding IL-17A/A (Genscript #Z03228). The cells, compound, and IL-17A/A were then incubated for 20 hours before media was removed for SEAP analysis. The resulting inhibition curve was then analyzed using Graphpad Prism 7.0, and IC50 values were determined using a 4-parameter nonlinear fit. DMSO was added to a universal final concentration of 0.1% to optimze background.

Row | Compound | IC50
1 | CC(C(=O)NCC(F)(F)F)c1cc(F)c(NC(=O)[C@@H](NC(=O)c2ccnn2C(C)C)C(C2CC2)C2CC2)cc1C1CC1 (single isomer, unassigned) [Compound 126] | 0.1 to 1 µM
2 | CC(C(=O)NCC(F)(F)F)c1cc(F)c(NC(=O)[C@@H](NC(=O)c2ccnn2C(C)C)C(C2CC2)C2CC2)cc1C1CC1 (single isomer, unassigned) [Compound 127] | < 0.1 µM
3 | CC(C)C(C(=O)NCC(F)(F)F)c1ccc(NC(=O)[C@@H](NC(=O)c2ccnn2C(C)C)C(C2CC2)C2CC2)c(F)c1 (single isomer, unassigned) [Compound 128] | 0.1 to 1 µM
4 | CC(C)C(C(=O)NCC(F)(F)F)c1ccc(NC(=O)[C@@H](NC(=O)c2ccnn2C(C)C)C(C2CC2)C2CC2)c(F)c1 (single isomer, unassigned) [Compound 129] | > 1 µM
5 | CC(C)n1nccc1C(=O)N[C@H](C(=O)Nc1ccc(C(CN2CCOCC2)C(=O)NCC(F)(F)F)cc1F)C(C1CC1)C1CC1 (single isomer, unassigned) [Compound 130] | > 1 µM
6 | CC(C)n1nccc1C(=O)N[C@H](C(=O)Nc1ccc(C(CN2CCOCC2)C(=O)NCC(F)(F)F)cc1F)C(C1CC1)C1CC1 (single isomer, unassigned) [Compound 131] | 0.1 to 1 µM
7 | CC(C)n1nccc1C(=O)N[C@H](C(=O)Nc1ccc([C@H](C)C(=O)NC2CNCC2(F)F)cc1F)C(C1CC1)C1CC1 (single isomer, unassigned) [Compound 133] | > 1 µM
8 | CC(C)n1nccc1C(=O)N[C@H](C(=O)Nc1ccc([C@H](C)C(=O)NC2CNCC2(F)F)cc1F)C(C1CC1)C1CC1 (single isomer, unassigned) [Compound 134] | 0.1 to 1 µM
9 | CC(C(=O)N(CC(N)=O)CC(F)(F)F)c1ccc(NC(=O)[C@@H](NC(=O)c2ccnn2C(C)C)C(C2CC2)C2CC2)c(F)c1 (single isomer, unassigned) [Compound 137] | < 0.1 µM
10 | CC(C(=O)N(CC(N)=O)CC(F)(F)F)c1ccc(NC(=O)[C@@H](NC(=O)c2ccnn2C(C)C)C(C2CC2)C2CC2)c(F)c1 (single isomer, unassigned) [Compound 138] | > 1 µM
11 | CC(C)n1nccc1C(=O)N[C@H](C(=O)Nc1ccc(C(C(=O)NCC(F)(F)F)N2CCOCC2)cc1F)C(C1CC1)C1CC1 (single isomer, unassigned) [Compound 140] | > 1 µM
12 | CC(C)n1nccc1C(=O)N[C@H](C(=O)Nc1ccc(C(C(=O)NCC(F)(F)F)N2CCOCC2)cc1F)C(C1CC1)C1CC1 (single isomer, unassigned) [Compound 141] | > 1 µM
13 | CC(C)n1nccc1C(=O)N[C@H](C(=O)Nc1ccc([C@H](C)C(=O)N2CC(O)CC2C(F)(F)F)cc1F)C(C1CC1)C1CC1 (single isomer, unassigned) [Compound 142] | < 0.1 µM
14 | CC(C)n1nccc1C(=O)N[C@H](C(=O)Nc1ccc([C@H](C)C(=O)N2CC(O)CC2C(F)(F)F)cc1F)C(C1CC1)C1CC1 (single isomer, unassigned) [Compound 143] | 0.1 to 1 µM
15 | CC(C)n1nccc1C(=O)N[C@H](C(=O)Nc1ccc([C@H](C)C(=O)N2CC(O)CC2C(F)(F)F)cc1F)C(C1CC1)C1CC1 (single isomer, unassigned) [Compound 144] | > 1 µM
16 | CC(C)n1nccc1C(=O)N[C@H](C(=O)Nc1ccc([C@H](C)C(=O)N2CC(O)CC2C(F)(F)F)cc1F)C(C1CC1)C1CC1 (single isomer, unassigned) [Compound 145] | > 1 µM
17 | CC(C)n1nccc1C(=O)N[C@H](C(=O)Nc1ccc([C@H](C)C(=O)N2C(C(N)=O)CCC2C(F)(F)F)cc1F)C(C1CC1)C1CC1 (single isomer, unassigned) [Compound 146] | > 1 µM
18 | CC(C)n1nccc1C(=O)N[C@H](C(=O)Nc1ccc([C@H](C)C(=O)N2C(C(N)=O)CCC2C(F)(F)F)cc1F)C(C1CC1)C1CC1 (single isomer, unassigned) [Compound 147] | > 1 µM
19 | CC(C)n1nccc1C(=O)N[C@H](C(=O)Nc1ccc([C@H](C)C(=O)N2C(C(N)=O)CCC2C(F)(F)F)cc1F)C(C1CC1)C1CC1 (single isomer, unassigned) [Compound 148] | > 1 µM
